Assay: Human HepG2 cell viability assay in 384 well format
Type: toxicity, cell-based
Set-up: dose 125 nL, time 70.5 hour; concentration not given beside the values
Conditions: HepG2 cells, read-out: Inhibition

Row | Structure (SMILES) | cytotoxicity at 70.5 h
1 | COCC(=O)N1CCCC1c1cccc(C)c1C (stereo not given) | 4.58%
2 | CC(=O)N(Cc1c(F)cccc1F)C1CCCC1 | -6.67%
3 | CCc1nsc(NC2CC(=O)N(C(C)(C)C)C2)n1 (stereo not given) | -8.26%
4 | CC1CCCCN1C(=O)c1ccc(Br)s1 (stereo not given) | -5.12%
5 | O=C(C[S+]([O-])Cc1ccccc1F)N1CCc2sccc2C1 (stereo not given) | -7.21%
6 | O=C(C[S+]([O-])Cc1c(Cl)cccc1Cl)N1CCc2sccc2C1 (stereo not given) | -7.37%
7 | O=C(C[S+]([O-])Cc1ccc(F)cc1)N1CCc2sccc2C1 (stereo not given) | -9.59%
8 | Cc1cc(N)nc(SC2CCN(c3ccccc3F)C2=O)n1 (stereo not given) | 19%
9 | O=c1c2cccnc2cnn1CC(O)c1ccc(F)c(F)c1 (stereo not given) | -6.63%
10 | O=c1c2cccnc2cnn1CC(O)c1ccc(Br)cc1 (stereo not given) | 12%
11 | Cc1cc(N)nc(SC2CCN(c3ccccc3)C2=O)n1 (stereo not given) | -2.2%
12 | CC(C)c1nnc(NC(=O)c2cccc(OCC(F)(F)F)n2)[nH]1 | -3.15%
13 | O=C(Nc1cc(C2CCOCC2)[nH]n1)c1cscn1 | -7.61%
14 | CN(C(=O)CCOc1ccccc1)C1CCN(CC2CCOC2)CC1 (stereo not given) | -8.86%
15 | Cc1n[nH]c(C)c1NC(=O)c1cccc(OCC(F)(F)F)n1 | -10.8%
16 | Cc1ccoc1C(=O)NCCOc1ccc(C(F)(F)F)cn1 | 18.3%
17 | CN1CCCN(S(C)(=O)=O)c2cc(F)ccc21 | -3.48%
18 | Cc1nnc2ccc(NCC3(N4CCCCC4)CCOCC3)nn12 | -4.4%
19 | CCN(Cc1ccoc1)C(=O)c1cc(S(N)(=O)=O)c(C)o1 | -5.31%
20 | CC(NCc1cnc(C2CCC2)s1)c1ccc(-n2cncn2)cc1 (stereo not given) | -5.3%
21 | CC1C(=O)Nc2cccnc2N1S(=O)(=O)c1cc(F)cc(F)c1 (stereo not given) | 16%
22 | Cc1nc(C)c(C(C)NC(=O)NCCNc2cccc(F)c2C#N)s1 (stereo not given) | -8.61%
23 | CCN(Cc1ccoc1)C(=O)c1cc2c(c(S(N)(=O)=O)c1)CCC2 | -8.02%
24 | CC(NCc1cnc(C2CCC2)s1)c1cccc(-n2cccn2)c1 (stereo not given) | 16.3%

Row | Structure (SMILES) | cytotoxicity at 70.5 h
25 | CC(NCc1cnc(C2CCC2)s1)c1cccc(-n2ccnc2)c1 (stereo not given) | -5.22%
26 | Cc1cccc(C2(C(=O)NCC(C)CN3CCCC3=O)CC2)c1 (stereo not given) | -11.5%
27 | NC(=O)C1CCN(C(=O)c2ccccc2OCc2ccncc2)CC1 | -12.3%
28 | Cc1cccc(COc2ccccc2C(=O)N2CCC(C(N)=O)CC2)c1 | 4.8%
29 | Oc1ccc(N2CCN(Cc3ccc(F)cc3Br)CC2)cc1 | -7.04%
30 | Cc1nc2cc(C(=O)N(CCC#N)CCC#N)ccc2n1C | -6.33%
31 | CN(Cc1ccccc1)CC(C)(C)NC(=O)c1ccc(C(N)=O)cn1 | 1.67%
32 | Cc1ccc(Br)c(S(=O)(=O)NCc2cnn(C)c2)c1 | -5.3%
33 | Cn1ccnc1-c1noc(NCc2ccc(Cl)cc2)n1 | -8.5%
34 | Cn1ccnc1-c1noc(NCc2ccc(Br)cc2)n1 | -7.73%
35 | Cn1ccnc1-c1noc(NCc2ccccc2)n1 | -7.49%
36 | CCc1noc(CS(=O)(=O)CC=C(C)C)n1 | -9.04%
37 | CC(=O)NCCCNCc1c(C)nn(CC(C)C)c1N(C)C | -5.4%
38 | CNS(=O)(=O)CC(=O)N(Cc1ccccc1)c1ccc(C)cc1 | -5.84%
39 | CN(Cc1ccccc1)CC(C)(C)NC(=O)c1ccon1 | -4.18%
40 | CCOCc1ccc(CNc2nc(OC)ncc2Cl)cc1 | -10.8%
41 | COC1CCCN(C(=O)NCC(C)(C)SC)C1 (stereo not given) | -11.6%
42 | Cc1ccc(-c2ncc(CN3CCOC(c4ccco4)C3)s2)o1 (stereo not given) | -6.87%
43 | O=C(C1CCCN(Cc2cccnc2)C1)N1CCc2sccc2C1 (stereo not given) | -5.24%
44 | OCCCN(CCn1cncn1)c1ccccc1 | 30.6%
45 | CC(NS(=O)(=O)CCc1ccccn1)c1ccccc1Br (stereo not given) | 33.3%
46 | Cc1csc(CNC(=O)NC(C)c2ccc3c(c2)OCCO3)n1 (stereo not given) | 5.07%
47 | CN(C)S(=O)(=O)N1CCN(C(=O)c2cc(-c3ccccc3)[nH]n2)CC1 | -0.515%
48 | COCCCNC(=O)Nc1cccc(Cl)c1-n1cccn1 | -3.36%

Row | Structure (SMILES) | cytotoxicity at 70.5 h
49 | CN(C)CC(NC(=O)c1ccn(C)c(=O)c1)c1ccccc1 (stereo not given) | 0.262%
50 | CC(NC(=O)COC1CCCC1)c1nc(-c2ccccc2)c[nH]1 (stereo not given) | -1.37%
51 | CNC(=O)C(NC(=O)c1ccn(C)c(=O)c1)c1ccccc1 (stereo not given) | 33.4%
52 | NC(=O)C1CCCN1C1CCN(C(=O)c2ccc3c(c2)OCO3)CC1 (stereo not given) | -1.65%
53 | O=C(c1cccc2c1OCO2)N1CCC(N2CCCC2)CC1 | -1.7%
54 | CCOCC(=O)NS(=O)(=O)c1ccc(F)cc1C(F)(F)F | -4.87%
55 | COCCS(=O)(=O)NC(C)c1cccc(C)c1C (stereo not given) | 28.4%
56 | CC(Sc1n[nH]c(-c2ccc3c(c2)CCC3)n1)C(N)=O (stereo not given) | 0.8%
57 | CS(=O)(=O)CCCSc1n[nH]c(-c2ccc3c(c2)CCC3)n1 | -1.26%
58 | CN1C(=O)CCc2cc(NC(=O)C3CC(=O)N(CC4CC4)C3)ccc21 (stereo not given) | 2.59%
59 | Brc1ccc(NCc2ccc(Cn3ccnc3)cc2)nc1 | 43.7%
60 | NC(=O)CCSc1n[nH]c(-c2ccc3c(c2)CCC3)n1 | -1.76%
61 | CCc1n[nH]c(C2CN(Cc3csc(COC)n3)CCO2)n1 (stereo not given) | -7.86%
62 | COCCN1CC=C(c2cccc(OC)c2)CC1 | 1.42%
63 | CCCc1noc(CS(=O)(=O)c2cccc(OC)c2)n1 | -5.69%
64 | CC(C)N(Cc1cccnc1)C(=O)CSc1ccc(C#N)cc1 | -8.92%
65 | CS(=O)(=O)c1nccn1CCOc1ccc(F)cc1Cl | -2.15%
66 | COc1ccc2c(c1)CC(NCCCn1cc(C)cn1)CC2 (stereo not given) | 1.45%
67 | CC(NCCN1CCC(N(C)C)CC1)c1ccc(F)cc1N(C)C (stereo not given) | 15%
68 | CC1CCN(CC(O)CN2CCn3c(nnc3C3CC3)C2)CC1 (stereo not given) | 35.7%
69 | Cc1cnn(CCNCc2nc(-c3ccsc3)oc2C)c1 | 7.72%
70 | c1ccc2nc(NCC3(N4CCOCC4)CCSC3)cnc2c1 (stereo not given) | 28.5%
71 | c1nc(NCC2(N3CCOCC3)CCSC2)c2sccc2n1 (stereo not given) | -4.54%
72 | Cc1cc(C)cc(C(C)NC(=O)c2ccc(CS(C)(=O)=O)o2)c1 (stereo not given) | -3.42%

Row | Structure (SMILES) | cytotoxicity at 70.5 h
73 | Cc1nc(S(=O)(=O)CCn2cccn2)n(C2CCCCC2)c1C | -4.93%
74 | CS(=O)(=O)CCOCCNc1cncc(Br)c1 | -3.24%
75 | CCc1cnc(CNC(=O)N2CCCC(C(=O)NC)C2)s1 (stereo not given) | 12.5%
76 | CCC(O)CN1CCN(C(=O)Cc2c(C)nc(C)[nH]c2=O)CC1 (stereo not given) | 3.13%
77 | c1csc(-c2nnc(CSCCN3CCOCC3)o2)c1 | 12.2%
78 | COc1cc(CNc2nncs2)cc(OC)c1OC | 12.6%
79 | COc1ccc(CNc2nncs2)cc1F | -2.65%
80 | Fc1cc(CNc2nncs2)ccc1Cl | -2.31%
81 | Cc1cccc(C(C)CNC(=O)N2CCC3(C2)OCCO3)c1 (stereo not given) | 12.8%
82 | COCCOCCNc1cncc(Br)c1 | -0.213%
83 | CCCN(C)CC1CCN(c2ccc(Br)c(C)n2)C1 (stereo not given) | 4.09%
84 | OC1CCN(Cc2ccc(CNc3ncc(Cl)cc3F)cc2)CC1 | 14.7%
85 | Cc1nc(CNC(=O)N2CCCC(c3ncc[nH]3)C2)sc1C (stereo not given) | -5.05%
86 | CCC(CNC(=O)N1CCOCC2(CCOCC2)C1)c1ccccc1 (stereo not given) | -5.59%
87 | CC(C)CC(C)NCCCN1CCCN(C)CC1 (stereo not given) | 21.1%
88 | COCCCN(Cc1ccc(F)cc1Cl)C1CCS(=O)(=O)C1 (stereo not given) | 1.64%
89 | CC(CCc1ccccc1)N1CCC(C(=O)NCc2ccccc2)CC1 (stereo not given) | 0.455%
90 | O=S(=O)(Cc1ccc(F)cc1)NCCc1nnc2n1CCC2 | -18.4%
91 | CC(CCc1ccccc1)N1CCC(C(=O)Nc2ccccn2)CC1 (stereo not given) | 22%
92 | CC(CCc1ccccc1)N1CCC(C(=O)Nc2cnccn2)CC1 (stereo not given) | -19.2%
93 | CCOC(=O)CCNC(=O)c1cc(Cl)cc2cccnc12 | -4.4%
94 | CCS(=O)(=O)N(C)CCCNC(=O)c1cc(Cl)cc2cccnc12 | -11%
95 | O=C(c1cc(Cl)c[nH]1)N1CCN(CCc2ccccn2)CC1 | -16%
96 | COc1cc(I)c(Cl)cc1C(=O)N(C)CC(=O)NC(C)(C)C | -23.4%

Row | Structure (SMILES) | cytotoxicity at 70.5 h
97 | CCn1ncc(C(=O)NCc2ccc(C)c(OC)c2)c1C(F)(F)F | -21.3%
98 | O=C(Cn1cc(-n2cccc2)cn1)NCC(F)(F)F | -12.8%
99 | CN(Cc1nnc(-c2cccs2)o1)C(C(N)=O)c1cccc(F)c1 (stereo not given) | -22%
100 | Cc1ccc(NC(=O)NCCc2cnn(C)c2)c(N(C)C)n1 | 0.893%
101 | Cc1ccc(NC(=O)NCCc2ccncc2C)c(N(C)C)n1 | -16.2%
102 | Cc1cc(F)c(S(=O)(=O)Nc2ccn(CCC#N)n2)cc1F | -16.3%
103 | O=C(Cc1cccc(F)c1)NC1CCCc2cn[nH]c21 (stereo not given) | -11.9%
104 | O=S1(=O)CCN2C(=N1)Oc1ccc(S(=O)(=O)N3CCCC3)cc12 | -5.8%
105 | Cc1cccc(N2CCN(C(=O)CCCC(=O)N(C)C)C(C)C2)n1 (stereo not given) | -18.7%
106 | CNC(=O)CN(C)C(=O)c1cc2ccccc2cc1OC | -17.8%
107 | N#Cc1ccccc1CN(CCO)Cc1ccsc1 | -14.1%
108 | CC(C)OCCCNC(=O)NCc1cccc(-n2ccnc2)c1 | -6.74%
109 | COCCN(Cc1cccc(O)c1)CC1CC1 | 29.9%
110 | CN(Cc1nnc(C2CC2)n1C)S(=O)(=O)c1ccccc1F | 4.23%
111 | COC(=O)CC(C)(C)CC(=O)N1CCC(C(F)(F)F)CC1 | 1.71%
112 | CC(Cn1cccn1)NC(=O)NCCN1CCCCCC1=O (stereo not given) | 2.55%
113 | CNC(=O)C1CN(Cc2ccc(C#N)cc2F)c2ccccc2O1 (stereo not given) | 1%
114 | CC(C)(C)OC(=O)N1CSC[C@@H]1C(=O)NCc1cccc(C#N)c1 | -0.236%
115 | CC(C)(C)OC(=O)N1CSC[C@@H]1C(=O)NCc1ccc(C#N)cc1 | -3.01%
116 | CC(C)(C)OC(=O)N1CSC[C@@H]1C(=O)NCc1ccsc1 | -1.79%
117 | CC(C)OCCC(=O)Nc1ncn(CC(=O)N2CCCCCC2)n1 | -1.46%
118 | O=C(CCc1ccco1)Nc1ncn(CC(=O)N2CCCCCC2)n1 | -2.03%
119 | CC(C)(C)CNC(=O)CNC(=O)C1CC1 | 0.566%
120 | Cc1cc2c(cc1C)C(NC1CC1)CCCO2 (stereo not given) | 0.0987%

Source: ChEMBL document CHEMBL3507680, “University of Dundee, Gates Library screen for HepG2 cell viability”
